The target of one assay is T1, AgamOr29 + AgamOrco (Anopheles gambiae, UniProt A0A1S4H074).
T1 sequence (A0A1S4H074 1-384): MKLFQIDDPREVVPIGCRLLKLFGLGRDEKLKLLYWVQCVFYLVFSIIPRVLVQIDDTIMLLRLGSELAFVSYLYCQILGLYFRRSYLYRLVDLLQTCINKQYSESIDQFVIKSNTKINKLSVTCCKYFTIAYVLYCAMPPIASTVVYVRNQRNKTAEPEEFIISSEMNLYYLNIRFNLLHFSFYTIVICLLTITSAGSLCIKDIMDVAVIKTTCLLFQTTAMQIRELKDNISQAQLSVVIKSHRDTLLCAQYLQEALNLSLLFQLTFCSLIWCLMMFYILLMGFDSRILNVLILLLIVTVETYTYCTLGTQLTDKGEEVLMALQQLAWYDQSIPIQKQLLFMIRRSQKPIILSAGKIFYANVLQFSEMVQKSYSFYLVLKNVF
T1 sequence (Q7QCC7 1-478 partner): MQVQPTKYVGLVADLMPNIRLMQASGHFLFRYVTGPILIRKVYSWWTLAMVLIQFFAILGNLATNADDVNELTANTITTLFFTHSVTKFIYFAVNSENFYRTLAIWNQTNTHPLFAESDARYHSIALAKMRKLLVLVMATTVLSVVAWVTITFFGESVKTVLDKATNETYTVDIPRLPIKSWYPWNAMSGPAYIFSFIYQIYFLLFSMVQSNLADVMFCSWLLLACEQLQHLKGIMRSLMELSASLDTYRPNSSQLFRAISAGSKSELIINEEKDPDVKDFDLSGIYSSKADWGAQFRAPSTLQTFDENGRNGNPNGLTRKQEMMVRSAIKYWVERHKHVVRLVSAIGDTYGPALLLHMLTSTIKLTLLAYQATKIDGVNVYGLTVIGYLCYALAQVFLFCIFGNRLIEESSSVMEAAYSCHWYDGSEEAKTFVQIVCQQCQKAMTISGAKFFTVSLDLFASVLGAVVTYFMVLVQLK
Put plainly: two-electrode voltage clamp, Xenopus oocytes. In kind it is cell-based.

The target in a further assay is T2, AgamOr53 + AgamOrco (Anopheles gambiae, UniProt A0ABK8FS74).
T2 sequence (A0ABK8FS74 1-384): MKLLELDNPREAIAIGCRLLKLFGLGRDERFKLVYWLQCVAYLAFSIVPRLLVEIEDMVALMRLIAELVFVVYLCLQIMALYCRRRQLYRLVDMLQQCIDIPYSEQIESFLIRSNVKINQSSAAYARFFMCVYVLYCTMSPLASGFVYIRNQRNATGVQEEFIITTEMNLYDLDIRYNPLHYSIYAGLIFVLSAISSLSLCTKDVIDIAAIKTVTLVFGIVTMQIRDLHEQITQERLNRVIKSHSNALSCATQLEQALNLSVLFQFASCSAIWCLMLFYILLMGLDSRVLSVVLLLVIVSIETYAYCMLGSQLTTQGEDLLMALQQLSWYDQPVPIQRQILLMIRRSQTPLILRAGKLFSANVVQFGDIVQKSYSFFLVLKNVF
T2 sequence (Q7QCC7 1-478 partner): T1 sequence (Q7QCC7 1-478 partner)
In words: two-electrode voltage clamp, Xenopus oocytes. It counts as cell-based.

pEC50: −log10 of the molar value.

The values that follow come from doi:10.1101/2022.09.19.508609v1 (biorxiv, 2022).

What is called pEC50 is −log10 of the EC50, conventionally taken in molar units.

As for `C=C[C@](C)(O)CCC=C(C)C` [(R)-(–)-linalool], the pEC50 on AgamOr29 + AgamOrco and on AgamOr53 + AgamOrco was 4.83 throughout.

For `C=C[C@@](C)(O)CCC=C(C)C` [(S)-(+)-linalool], the results for the pEC50 on AgamOr29 + AgamOrco and on AgamOr53 + AgamOrco were 5.15 and 4.72, respectively.
